These results are taken from patent US20150328377A1, “COMPOSITION OF D-ALPHA HYDROXY ACIDS AND ANTIMICROBIALS” (BACTERIN INTERNATIONAL, INC., priority 2012, published 2015).

In this assay the test system is S. aureus. The assay is described as follows: microplate biofilm formation assay (crystal violet). On the set-up: key to Relative Biofilm Score: crystal violet conc. / non-treated control conc. (1 = control). The format is cell-based. The method, then: The synergy between a D-alpha hydroxy acid and an antimicrobial agent was determined through a standard microplate biofilm formation assay (Antimicrob Agents Chemother. 2009, 53, 4159-4166—which is incorporated in its entirety by reference). […] Before incubation each well received about 0, about 2, about 20, or about 200 μg/mL L- or D-lactic acids and about 0.0 or about 0.5 μg/mL chlorhexidine (CHX). The plates were incubated for approximately 20 hours at about 37° C. and then the supernatant of the wells was removed. Each well was gently washed 3 times with phosphate buffered saline, and the biofilm was fixed by incubating the plates at about 60° C. for about 1 hour. The biofilm was then stained by incubating at about 37° C. in about 100 μL about 0.5% crystal violet for about 20 minutes. The plates were then thoroughly rinsed with tap water to remove any excess crystal violet and dried. The residual crystal violet was then extracted with about 200 μL of about 33% acetic acid. About 150 μL of the about 33% acetic acid extractant was then diluted with about 2000 μL acetonitrile and the quantity of crystal violet was determined by measuring the absorbance of the resulting solution at about 590 nanometers. The concentration of crystal violet is directly proportional to the amount of biofilm formation in each well. Each set of concentrations was measured at least four times. The average crystal violet concentration was divided by the average crystal violet concentration for a non-treated control (about 0.0 μg/mL CHX and about 0.0 μg/mL lactic acid) to obtain a relative biofilm formation score. In the same manner as Example 1, the synergy between a D-alpha hydroxy acid and the combination of rifampin and minocycline was determined. […] Before incubation each well received about 0 μg/mL or about 200 μg/mL of L- or D-lactic acid and about 0 ng/mL or about 5 ng/mL each of rifampin and minocycline. The plates were incubated for about 20 hours at about 37° C. and then the supernatant of the wells was removed. The quantity of biofilm formation in each well was determined using the protocol detailed in Example 1.

The mark [1] stands for this setting: 2 μg/mL lactic acid combined with 0.5 μg/mL CHX.
Setting [2] is: 2 μg/mL lactic acid, 0.0 μg/mL CHX.
Setting [3] is: 20 μg/mL lactic acid combined with 0.5 μg/mL CHX.
[4] abbreviates: 20 μg/mL lactic acid, 0.0 μg/mL CHX.
The mark [5] stands for this setting: 200 μg/mL lactic acid combined with 5.0 ng/mL Rif/Min, Table 2.
Setting [6] is: 200 μg/mL lactic acid combined with 0.5 μg/mL CHX.
[7] abbreviates: 200 μg/mL lactic acid, 0.0 μg/mL CHX.
The mark [8] stands for this setting: 200 μg/mL lactic acid, 0.0 ng/mL Rif/Min, Table 2.

Several values for one entry are separate records, joined by “and”; a condition that tells them apart may be missing. Identical values can stand only once.

With `[H]/N=C(\N/C(=N/[H])NCCCCCCNC(=N)NC(=N)Nc1ccc(Cl)cc1)Nc1ccc(Cl)cc1` [CHX, chlorhexidine], the “Relative Biofilm Score” value (0.5 μg/mL CHX alone (0 μg/mL lactic acid), relative to non-treated control, values approximate) is 0.26 ± 0.04 and 0.26 ± 0.05.
On to `C[C@@H](O)C(=O)O` [D-Lactic Acid, D-lactic acid], for which the “Relative Biofilm Score” value under setting [1] came to 0.19 ± 0.03; the “Relative Biofilm Score” value under setting [2] is 1.07 ± 0.24; the “Relative Biofilm Score” value under setting [3] came out at 0.12 ± 0.03; the “Relative Biofilm Score” value under setting [4] is 1.11 ± 0.17; the “Relative Biofilm Score” value under setting [5] turned out to be 0.27 ± 0.04; the “Relative Biofilm Score” value under setting [6] amounted to 0.04 ± 0.01. For the same compound, the “Relative Biofilm Score” value is reported as 1.10 ± 0.20 under setting [7] and 0.92 ± 0.24 under setting [8]. The “effect on biofilm formation” value is reported as “statistically significant dose dependent decrease in biofilm formation” (combined with chlorhexidine, not by itself); “statistically significant decrease in biofilm formation” (combined with rifampin and minocycline, not by itself).
Take `C[C@H](O)C(=O)O` [L-Lactic Acid, L-lactic acid]: the “Relative Biofilm Score” value is, setting by setting: under setting [1], 0.23 ± 0.05; under setting [2], 1.01 ± 0.20; under setting [3], 0.33 ± 0.08; under setting [4], 1.06 ± 0.18; under setting [5], 0.43 ± 0.03; under setting [6], 0.27 ± 0.07. Further, the “Relative Biofilm Score” value was 1.16 ± 0.18 under setting [7] and 1.04 ± 0.15 under setting [8]. Further, the “effect on biofilm formation” value by setting is: (alone or in combination with chlorhexidine at any concentration) “did not show any statistically significant effects on biofilm formation”; (by itself or combined with rifampin and minocycline) “did not show any reduction in biofilm formation”.
